From patent publication US20070049564A1 (Wyeth, priority 2005, published 2007)
Converted amounts (≈) assume the structure as drawn. Read-outs that look alike come from different tables or passages of the source.

Columns and labels:
E. coli = assay: Range of MIC for E. coli strains; conditions: Escherichia coli
Staph. = assay: Range of MIC for Staph. strains, including MRSA; conditions: Staphylococcus aureus, MRSA
[1] = 20 h, read-out: Range of MIC, E. coli (Mouse Serum)
[2] = read-out: Range of MIC, E. coli (Water)
[3] = read-out: Range of MIC, Staph (Mouse Serum)
[4] = read-out: Range of MIC, Staph (Water)

`CCC(CC)C(=O)OCOC(=O)Nc1cc(N(C)C)c2c(c1O)C(=O)C1=C(O)[C@]3(O)C(=O)C(C(N)=O)=C(O)[C@@H](N(C)C)[C@@H]3C[C@@H]1C2` [Example 85, [({[(5aR,6aS,7S,10aS)-9-(aminocarbonyl)-4,7-bis(dimethylamino)-1,8,10a,11-tetrahydroxy-10,12-dioxo-5,5a,6,6a,7,10,10a,12-octahydrotetracen-2-yl]amino}carbonyl)oxy]methyl 2-ethylbutanoate] gave an MIC (E. coli; [1]) of 1 to 2 mg/L (≈ 1.55 to 3.1 µM), an MIC (E. coli; [2]) of over 64 mg/L and an MIC (Staph.; [3]) of 1 to 2 mg/L (≈ 1.55 to 3.1 µM). The MIC (Staph.; [4]) was 4 to 16 mg/L (≈ 6.2 to 24.8 µM).
Work on `CN(C)c1cc(NC(=O)OCOC(=O)CC2CCCC2)c(O)c2c1C[C@H]1C[C@H]3[C@H](N(C)C)C(O)=C(C(N)=O)C(=O)[C@@]3(O)C(O)=C1C2=O` [Example 86, [({[(5aR,6aS,7S,10aS)-9-(aminocarbonyl)-4,7-bis(dimethylamino)-1,8,10a,11-tetrahydroxy-10,12-dioxo-5,5a,6,6a,7,10,10a,12-octahydrotetracen-2-yl]amino}carbonyl)oxy]methyl cyclopentylacetate] yielded an MIC (E. coli; [1]) of 8 to 16 mg/L (≈ 12.2 to 24.4 µM), an MIC (E. coli; [2]) of over 64 mg/L and an MIC (Staph.; [3]) of 2 to 8 mg/L (≈ 3.05 to 12.2 µM). For the same compound, the MIC (Staph.; [4]) was 8 mg/L (≈ 12.2 µM).
Work on `CN(C)c1cc(NC(=O)CN(C(=O)OCOC(=O)c2cccnc2)C(C)(C)C)c(O)c2c1C[C@H]1C[C@H]3[C@H](N(C)C)C(O)=C(C(N)=O)C(=O)[C@@]3(O)C(O)=C1C2=O` [Example 88, ({[(2-{[(5aR,6aS,7S,10aS)-9-(aminocarbonyl)-4,7-bis(dimethylamino)-1,8,10a,11-tetrahydroxy-10,12-dioxo-5,5a,6,6a,7,10,10a,12-octahydrotetracen-2-yl]amino}-2-oxoethyl)(tert-butyl)amino]carbonyl}oxy)methyl nicotinate] yielded an MIC (E. coli; [1]) of 0.5 to 2 mg/L (≈ 0.654 to 2.62 µM), an MIC (E. coli; [2]) of 8 to 16 mg/L (≈ 10.5 to 20.9 µM) and an MIC (Staph.; [3]) of 1 to 4 mg/L (≈ 1.31 to 5.23 µM). The MIC (Staph.; [4]) was 4 to 16 mg/L (≈ 5.23 to 20.9 µM).
`CN(C)c1cc(NC(=O)CN(C(=O)OCOC(=O)c2ccncc2)C(C)(C)C)c(O)c2c1C[C@H]1C[C@H]3[C@H](N(C)C)C(O)=C(C(N)=O)C(=O)[C@@]3(O)C(O)=C1C2=O` [Example 89, ({[(2-{[(5aR,6aS,7S,10aS)-9-(aminocarbonyl)-4,7-bis(dimethylamino)-1,8,10a,11-tetrahydroxy-10,12-dioxo-5,5a,6,6a,7,10,10a,12-octahydrotetracen-2-yl]amino}-2-oxoethyl)(tert-butyl)amino]carbonyl}oxy)methyl isonicotinate] showed an MIC (E. coli; [1]) of 0.25 to 1 mg/L (≈ 0.327 to 1.31 µM), an MIC (E. coli; [2]) of 4 to 8 mg/L (≈ 5.23 to 10.5 µM) and an MIC (Staph.; [3]) of 0.5 to 1 mg/L (≈ 0.654 to 1.31 µM). The MIC (Staph.; [4]) was 1 to 4 mg/L (≈ 1.31 to 5.23 µM).
For `CN(C)c1cc(NC(=O)CN(C(=O)OCOC(=O)c2ccccc2C(F)(F)F)C(C)(C)C)c(O)c2c1C[C@H]1C[C@H]3[C@H](N(C)C)C(O)=C(C(N)=O)C(=O)[C@@]3(O)C(O)=C1C2=O` [Example 92], the MIC (E. coli; [1]) was 4 to 8 mg/L (≈ 4.81 to 9.62 µM), the MIC (E. coli; [2]) was over 64 mg/L and the MIC (Staph.; [3]) was 4 mg/L (≈ 4.81 µM). For the same compound, the MIC (Staph.; [4]) was 8 to 32 mg/L (≈ 9.62 to 38.5 µM).
In the case of `CN(C)c1cc(NC(=O)CN(C(=O)OCOC(=O)c2ccccc2-c2ccccc2)C(C)(C)C)c(O)c2c1C[C@H]1C[C@H]3[C@H](N(C)C)C(O)=C(C(N)=O)C(=O)[C@@]3(O)C(O)=C1C2=O` [Example 94, ({[(2-{[(5aR,6aS,7S,10aS)-9-(aminocarbonyl)-4,7-bis(dimethylamino)-1,8,10a,11-tetrahydroxy-10,12-dioxo-5,5a,6,6a,7,10,10a,12-octahydrotetracen-2-yl]amino}-2-oxoethyl)(tert-butyl)amino]carbonyl}oxy)methyl 1,1′-biphenyl-2-carboxylate], the MIC (E. coli; [1]) is reported as 32 to 64 mg/L (≈ 38.1 to 76.2 µM), the MIC (E. coli; [2]) is reported as over 64 mg/L and the MIC (Staph.; [3]) is reported as 16 to 32 mg/L (≈ 19 to 38.1 µM). The MIC (Staph.; [4]) was over 64 mg/L.
`Cc1cc(C)c(C(=O)OCOC(=O)N(CC(=O)Nc2cc(N(C)C)c3c(c2O)C(=O)C2=C(O)[C@]4(O)C(=O)C(C(N)=O)=C(O)[C@@H](N(C)C)[C@@H]4C[C@@H]2C3)C(C)(C)C)c(C)c1` [Example 95, ({[(2-{[(5aR,6aS,7S,10aS)-9-(aminocarbonyl)-4,7-bis(dimethylamino)-1,8,10a,11-tetrahydroxy-10,12-dioxo-5,5a,6,6a,7,10,10a,12-octahydrotetracen-2-yl]amino}-2-oxoethyl)(tert-butyl)amino]carbonyl}oxy)methyl 2,4,6-trimethylbenzoate] showed an MIC (E. coli; [1]) of over 64 mg/L, an MIC (E. coli; [2]) of over 64 mg/L and an MIC (Staph.; [4]) of over 64 mg/L.
For `COc1cc(C(=O)OCOC(=O)N(CC(=O)Nc2cc(N(C)C)c3c(c2O)C(=O)C2=C(O)[C@]4(O)C(=O)C(C(N)=O)=C(O)[C@@H](N(C)C)[C@@H]4C[C@@H]2C3)C(C)(C)C)cc(OC)c1OC` [Example 97, ({[(2-{[(5aR,6aS,7S,10aS)-9-(aminocarbonyl)-4,7-bis(dimethylamino)-1,8,10a,11-tetrahydroxy-10,12-dioxo-5,5a,6,6a,7,10,10a,12-octahydrotetracen-2-yl]amino}-2-oxoethyl)(tert-butyl)amino]carbonyl}oxy)methyl 3,4,5-trimethoxybenzoate], the MIC (E. coli; [1]) was 4 to 8 mg/L (≈ 4.68 to 9.37 µM), the MIC (E. coli; [2]) was over 64 mg/L and the MIC (Staph.; [3]) was 1 to 4 mg/L (≈ 1.17 to 4.68 µM). The MIC (Staph.; [4]) was 4 to 8 mg/L (≈ 4.68 to 9.37 µM).
`COc1cc(OC)cc(C(=O)OCOC(=O)N(CC(=O)Nc2cc(N(C)C)c3c(c2O)C(=O)C2=C(O)[C@]4(O)C(=O)C(C(N)=O)=C(O)[C@@H](N(C)C)[C@@H]4C[C@@H]2C3)C(C)(C)C)c1` [Example 98, ({[(2-{[(5aR,6aS,7S,10aS)-9-(aminocarbonyl)-4,7-bis(dimethylamino)-1,8,10a,11-tetrahydroxy-10,12-dioxo-5,5a,6,6a,7,10,10a,12-octahydrotetracen-2-yl]amino}-2-oxoethyl)(tert-butyl)amino]carbonyl}oxy)methyl 3,5-dimethoxybenzoate] was tested, and the MIC (E. coli; [1]) was 1 to 4 mg/L (≈ 1.21 to 4.86 µM), the MIC (E. coli; [2]) was over 64 mg/L and the MIC (Staph.; [3]) was 0.5 to 2 mg/L (≈ 0.607 to 2.43 µM). It also gave an MIC (Staph.; [4]) of 2 to 4 mg/L (≈ 2.43 to 4.86 µM).
Work on `CN(C)c1cc(NC(=O)CN(C(=O)OCOC(=O)/C=C/c2ccccc2)C(C)(C)C)c(O)c2c1C[C@H]1C[C@H]3[C@H](N(C)C)C(O)=C(C(N)=O)C(=O)[C@@]3(O)C(O)=C1C2=O` [Example 99, ({[(2-{[(5aR,6aS,7S,10aS)-9-(aminocarbonyl)-4,7-bis(dimethylamino)-1,8,10a,11-tetrahydroxy-10,12-dioxo-5,5a,6,6a,7,10,10a,12-octahydrotetracen-2-yl]amino}-2-oxoethyl)(tert-butyl)amino]carbonyl}oxy)methyl (2E)-3-phenylprop-2-enoate] yielded an MIC (E. coli; [1]) of 1 to 2 mg/L (≈ 1.27 to 2.53 µM), an MIC (E. coli; [2]) of over 64 mg/L and an MIC (Staph.; [3]) of 0.5 to 2 mg/L (≈ 0.633 to 2.53 µM). It also gave an MIC (Staph.; [4]) of 2 to 4 mg/L (≈ 2.53 to 5.06 µM).
With `Cc1c(C(=O)OCOC(=O)N(CC(=O)Nc2cc(N(C)C)c3c(c2O)C(=O)C2=C(O)[C@]4(O)C(=O)C(C(N)=O)=C(O)[C@@H](N(C)C)[C@@H]4C[C@@H]2C3)C(C)(C)C)oc2ccccc12` [Example 100, ({[(2-{[(5aR,6aS,7S,10aS)-9-(aminocarbonyl)-4,7-bis(dimethylamino)-1,8,10a,11-tetrahydroxy-10,12-dioxo-5,5a,6,6a,7,10,10a,12-octahydrotetracen-2-yl]amino}-2-oxoethyl)(tert-butyl)amino]carbonyl}oxy)methyl 3-methyl-1-benzofuran-2-carboxylate] the MIC (E. coli; [1]) was 2 mg/L (≈ 2.45 µM), the MIC (Staph.; [3]) was 0.5 to 1 mg/L (≈ 0.611 to 1.22 µM) and the MIC (Staph.; [4]) was 2 to 4 mg/L (≈ 2.45 to 4.89 µM).
Compound `CN(C)c1cc(NC(=O)CN(C(=O)OCOC(=O)Cc2cc(C(F)(F)F)cc(C(F)(F)F)c2)C(C)(C)C)c(O)c2c1C[C@H]1C[C@H]3[C@H](N(C)C)C(O)=C(C(N)=O)C(=O)[C@@]3(O)C(O)=C1C2=O` [Example 101, ({[(2-{[(5aR,6aS,7S,10aS)-9-(aminocarbonyl)-4,7-bis(dimethylamino)-1,8,10a,11-tetrahydroxy-10,12-dioxo-5,5a,6,6a,7,10,10a,12-octahydrotetracen-2-yl]amino}-2-oxoethyl)(tert-butyl)amino]carbonyl}oxy)methyl [3,5-bis(trifluoromethyl)phenyl]acetate] has an MIC (E. coli; [1]) of 1 mg/L (≈ 1.09 µM), an MIC (E. coli; [2]) of 16 to 32 mg/L (≈ 17.5 to 35 µM) and an MIC (Staph.; [3]) of 0.5 to 2 mg/L (≈ 0.547 to 2.19 µM). It also gave an MIC (Staph.; [4]) of 4 to 16 mg/L (≈ 4.38 to 17.5 µM).
Work on `CN(C)c1cc(NC(=O)CN(C(=O)OCOC(=O)c2ccccc2CCc2ccccc2)C(C)(C)C)c(O)c2c1C[C@H]1C[C@H]3[C@H](N(C)C)C(O)=C(C(N)=O)C(=O)[C@@]3(O)C(O)=C1C2=O` [Example 103, ({[(2-{[(5aR,6aS,7S,10aS)-9-(aminocarbonyl)-4,7-bis(dimethylamino)-1,8,10a,11-tetrahydroxy-10,12-dioxo-5,5a,6,6a,7,10,10a,12-octahydrotetracen-2-yl]amino}-2-oxoethyl)(tert-butyl)amino]carbonyl}oxy)methyl 2-(2-phenylethyl)benzoate] yielded an MIC (E. coli; [1]) of 8 to 16 mg/L (≈ 9.22 to 18.4 µM), an MIC (E. coli; [2]) of over 64 mg/L and an MIC (Staph.; [3]) of 8 to 16 mg/L (≈ 9.22 to 18.4 µM).
With `CCCCCCCCCCCCOc1ccc(C(=O)OCOC(=O)N(CC(=O)Nc2cc(N(C)C)c3c(c2O)C(=O)C2=C(O)[C@]4(O)C(=O)C(C(N)=O)=C(O)[C@@H](N(C)C)[C@@H]4C[C@@H]2C3)C(C)(C)C)cc1` [Example 104] the MIC (E. coli; [1]) was 8 to 16 mg/L (≈ 8.44 to 16.9 µM), the MIC (E. coli; [2]) was over 64 mg/L and the MIC (Staph.; [3]) was 16 to 64 mg/L (≈ 16.9 to 67.5 µM).
Work on `CC(=O)Nc1ccc(C(=O)OCOC(=O)N(CC(=O)Nc2cc(N(C)C)c3c(c2O)C(=O)C2=C(O)[C@]4(O)C(=O)C(C(N)=O)=C(O)[C@@H](N(C)C)[C@@H]4C[C@@H]2C3)C(C)(C)C)cc1` [Example 105] yielded an MIC (E. coli; [1]) of 2 mg/L (≈ 2.44 µM), an MIC (E. coli; [2]) of over 64 mg/L and an MIC (Staph.; [3]) of 1 to 2 mg/L (≈ 1.22 to 2.44 µM).
`CN(C)c1cc(NC(=O)CN(C(=O)OCOC(=O)c2c3ccccc3cc3ccccc23)C(C)(C)C)c(O)c2c1C[C@H]1C[C@H]3[C@H](N(C)C)C(O)=C(C(N)=O)C(=O)[C@@]3(O)C(O)=C1C2=O` [Example 106, ({[(2-{[(5aR,6aS,7S,10aS)-9-(aminocarbonyl)-4,7-bis(dimethylamino)-1,8,10a,11-tetrahydroxy-10,12-dioxo-5,5a,6,6a,7,10,10a,12-octahydrotetracen-2-yl]amino}-2-oxoethyl)(tert-butyl)amino]carbonyl}oxy)methyl anthracene-9-carboxylate] gave an MIC (E. coli; [1]) of over 64 mg/L, an MIC (E. coli; [2]) of over 64 mg/L and an MIC (Staph.; [3]) of over 64 mg/L. The MIC (Staph.; [4]) was over 64 mg/L.
